{"source": "patent US20060051868A1", "about": "“Methods for increasing conifer somatic embryo initiation, capture, and multiplication” (priority 2001, published 2006)", "assay_type_in_all_cases": "cell-based", "key": {"[1]": {"tested_on": "Loblolly pine megagametophytes", "assay": "Initiation frequency of embryogenic cultures from Loblolly pine megagametophyte explants", "method": "Explants were megagametophytes isolated from Loblolly pine summer cones when embryos were at approximately stage 2-4. Seeds were. collected from four individual trees of diverse genotypes. Extracted seeds were soaked in running water for 10 minutes, agitated in 10% liquinox supplemented with 1.1 ml/l of Tween 20 for 10 minutes, and rinsed with water for 30 minutes. Seeds were sterilized in a laminar flow hood by agitating in 20% hydrogen peroxide for 10 minutes and rinsing with sterile deionized water. The seed coat, integuments, and nucellus were removed to isolate the megagametophytes. Culturing was performed in 24-well multi-well culture plates with each well having an approximate volume of 3.0 ml. Two ml of media was poured into each well.\nEach replication consisted of eight adjacent wells on a multi-well plate, with one megagametophyte per well, providing three replications per multi-well plate. Twelve replications (for a total of 96 explants) were performed per treatment for each cone collection. The well plates were wrapped in Parafilm®, elastic wrap to minimize evaporation and incubated at 22-24° C. under dark conditions for nine weeks. Initiation frequency was scored for each dish by counting the number of explants which had successfully initiated embryogenic cultures.\nThe media treatments consisted of: (1) a control media #1043 (see Table 21); (2) media #1218, comprising media #1043 supplemented with 250 mg/l MES buffer; (3) media #1043 supplemented with 0.5 ppm folic acid and 0.05 ppm biotin; and (4) media #1218 supplemented with 0.5 ppm folic acid and 0.05 ppm biotin.\nA representative procedure is shown for Loblolly pine. Experimental procedure follow similarly for other conifer but differ slightly in the composition of media used. […] Here, however, each treatment-genotype test consisted of ten replications of ten explants.\nThe cultures were covered and incubated in the dark at 24-26° C. for nine weeks.\nExplants from four Loblolly pine cone collections were prepared and cultured as described in Example 2. The media treatments consisted of control media, #1218, which is media #1043 supplemented. with 250 mg/l MES, and four treatment media, which consist of media #1218 supplemented with 0.33, 1.0, 2.0, and 3.0 ppm paclobutrazol, respectively.\nFour cone collections with embryos at stages 2-4 were used. Eighty explants from each cone collection on each media were tested. Seeds were removed from cones and soaked in running water for 10 min. Seeds were then agitated in 10% liquinox containing 1.1 ml/l Tween 20 for 10 min., and then rinsed with running tap water for 30 min. After transferring to a sterile hood, seeds were agitated in 20% H2O2 for 10 min., rinsed with sterile nanopure® H2O five times for 5 to 10 min. intervals, and then placed into a sterile petri dish for dissection. Seeds were dissected by splitting the seed coat, removing the integuments and nucellus. The megagametophyte was placed onto the appropriate medium. Each multi-well test plate contained 2 ml of solid media. Plates were incubated in the dark for 8 weeks and then scored.\nThe control media, media #1253, is described in detail in Table 16. All test media, #1275, #1421, #1422, and #1423 were comprised of the control media with the addition of a gibberellin inhibitor."}, "Loblolly pine initiates": {"tested_on": "Loblolly pine initiates", "assay": "Percentage of Loblolly pine maintenance cultures with mass greater than 200 mg at eight weeks", "details": "control 33.7", "from_the_text": "“Initiates” will be used to refer to recently initiated embryogenic tissues still on the initiation media. In this experiment, initiates were transferred to a maintenance and multiplication media directly from the initiation media. Five treatments, consisting of various media or culture conditions were imposed on the these cultures. Treatment media were based on media #1191. (See Table 21.) Initiates derived from eight different cone collections of Loblolly pine were transferred to vials containing 5 ml solid media. Seventy five replications were prepared for each treatment.\nThe transferred initiates were grown in the various treatments for four weeks, and thereafter transferred to vials containing fresh media (of the same composition utilized during the previous four weeks). At the end of a second four-week period, cultures were carefully removed from the vials and weighed. The percentage of cultures that had attained a mass of 200 mg or more was calculated for each treatment."}, "[2]": {"tested_on": "Loblolly pine embryogenic cultures", "assay": "Growth of Loblolly pine embryogenic cultures from single somatic embryos (tissue diameter, area)", "details": "base Media 1191, ABA 1.3 mg/l, standard atmosphere, five weeks", "method": "Three previously initiated Loblolly pine embryogenic cultures, each representing a different genotype, were grown in liquid media #1133, used as starting material for embryogenic cultures on various treatment media. Using a dissecting scope, individual stage 2 somatic embryos were extracted and placed on treatment media in the center of individual wells on a well plate. Forty embryos were prepared per treatment media, per genotype. Well plates were wrapped in Parafilm® and cultured under standard conditions at room temperature in the dark for four weeks. Embryogenic cultures derived from the single isolated embryos proliferated and spread over the surface of the culture medium. Spreading cultures were roughly circular in shape, radiating from the central embryo. At the end of four weeks, the growth of each culture was measured by measuring colony diameter using a dissecting scope ocular micrometer. Five treatment media were compared to control media #1043 (Table 21). Three media consisted of #1043 supplemented with paclobutrazol at concentrations of 0.33, 1.0 and 3.0 ppm. A B-vitamin treatment contained biotin at 0.05 ppm and folic acid at 0.5 ppm. […] The pH of media containing four different concentrations of MES was compared to that of a non-buffered control media during eight weeks of embryogenic culture growth. Maintenance cultures were established on treatment media using single isolated somatic embryos. Maintenance cultures were prepared and cultured essentially as described in Example 5. The control media was #1043. (See Table 21). The treatment media consisted of #1043 supplemented with 250, 500, 1000 and 1500 mg/l MES. Media pH was adjusted to 5.7 within all treatments prior to autoclaving, pouring and solidification. Immediately after pouring the media, and thereafter at two week intervals, media pH was measured up to the eighth week of culture growth. At each sampling time, four cultures from each media-genotype treatment were destructively sampled to measure the pH of the media directly underlying the growing embryogenic tissue. This experiment measured the effects of ABA, vitamins, culturing in a closed container, and culturing at increased atmospheric pressure on the growth of embryogenic cultures. Maintenance cultures were prepared on well plates using single somatic embryos, essentially as described in Example 5."}, "conifer": {"tested_on": "conifer", "assay": "Inventors' observation of initiation frequency in conifer with gibberellins"}, "[3]": {"details": "base media #1253, 1.0 ppm paclobutrazol, 0.1062 ppm flurprimidol, 1.58 ppm chlormequat-Cl, 0.16 ppm succinic acid-dh, 8 weeks, dark, control 29.5"}, "[4]": {"details": "base media #1253, 1.0 ppm paclobutrazol, 0.1062 ppm flurprimidol, 1.58 ppm chlormequat-Cl, 0.16 ppm succinic acid-dh, 8 weeks, dark, control 58.6"}}, "note": "Read-outs that look alike come from different tables or passages of the source.", "data": [{"smiles": "CC(C)C(O)(c1ccc(OC(F)(F)F)cc1)c1cncnc1", "note": "(centres unmarked) [Flurprimidol, flurprimidol]", "values": [{"measurement": "Extrusion (%)", "setting": "[1]", "result": 59.9, "unit": "%"}, {"measurement": "Initiation Frequency (%)", "setting": "[1]", "result": 36.3, "unit": "%"}]}, {"smiles": "C[N+](C)(C)CCCl", "note": "[Chlormequat-Cl, chlormequat-Cl]", "values": [{"measurement": "Initiation Frequency (%)", "setting": "[1]; [3]", "result": 36.8, "unit": "%"}, {"measurement": "Extrusion (%)", "setting": "[1]; [4]", "result": 61.6, "unit": "%"}]}, {"smiles": "CN(C)NC(=O)CCC(=O)O", "note": "[Succinic Acid-DH, succinic acid-DH]", "values": [{"measurement": "Initiation Frequency (%)", "setting": "[1]; [3]", "result": 38.0, "unit": "%"}, {"measurement": "Extrusion (%)", "setting": "[1]; [4]", "result": 63.3, "unit": "%"}]}, {"smiles": "CC1=CC(=O)CC(C)(C)[C@@]1(O)/C=C/C(C)=C\\C(=O)O", "note": "[ABA, abscisic acid]", "values": [{"measurement": "% mass >200 mg", "setting": "Loblolly pine initiates; Media 1191 + 1.3 mg/l ABA, cultured at 1.5 atm", "result": 61.2, "unit": "%"}, {"measurement": "% mass >200 mg", "setting": "Loblolly pine initiates; base Media 1191, ABA 1.3 mg/l, brassinolide 0.1 μM + paclobutrazol 1.0 ppm, MES 250 mg/l, biotin 0.05 ppm, folic acid 0.5 ppm", "result": 48.6, "unit": "%"}, {"measurement": "Tissue diameter (mm)", "setting": "[2]; control 4.11", "result": 4.61, "unit": "mm"}, {"measurement": "Tissue area (mm^2)", "setting": "[2]; control 13.3", "result": 16.7, "unit": "mm^2"}]}, {"smiles": "C=C1C[C@]23C[C@@]1(O)CC[C@H]2[C@@]12C=C[C@H](O)[C@@](C)(C(=O)O1)[C@H]2[C@@H]3C(=O)O", "note": "[gibberellic acid]", "values": [{"measurement": "effect on initiation frequency in conifer", "setting": "conifer", "result": "inhibitory effect"}]}]}
